Where a name gives a salt, the structure may show the parent alone.
Columns and labels:
[1] = target: T1, recombinant human α1D receptor (Homo sapiens, UniProt P25100); test: Adrenergic α1D selectivity assay, [3H]-prazosin binding to membranes; conditions: inhibition of [3H]-prazosin binding, HEK cell membranes, read-out: α1 bind pIC50 (converted)
T1 construct: expressed in transfected cells; host or cells: human embryonic kidney 293 cells (HEK93 [sic]), membranes
T1 sequence (P25100 1-572): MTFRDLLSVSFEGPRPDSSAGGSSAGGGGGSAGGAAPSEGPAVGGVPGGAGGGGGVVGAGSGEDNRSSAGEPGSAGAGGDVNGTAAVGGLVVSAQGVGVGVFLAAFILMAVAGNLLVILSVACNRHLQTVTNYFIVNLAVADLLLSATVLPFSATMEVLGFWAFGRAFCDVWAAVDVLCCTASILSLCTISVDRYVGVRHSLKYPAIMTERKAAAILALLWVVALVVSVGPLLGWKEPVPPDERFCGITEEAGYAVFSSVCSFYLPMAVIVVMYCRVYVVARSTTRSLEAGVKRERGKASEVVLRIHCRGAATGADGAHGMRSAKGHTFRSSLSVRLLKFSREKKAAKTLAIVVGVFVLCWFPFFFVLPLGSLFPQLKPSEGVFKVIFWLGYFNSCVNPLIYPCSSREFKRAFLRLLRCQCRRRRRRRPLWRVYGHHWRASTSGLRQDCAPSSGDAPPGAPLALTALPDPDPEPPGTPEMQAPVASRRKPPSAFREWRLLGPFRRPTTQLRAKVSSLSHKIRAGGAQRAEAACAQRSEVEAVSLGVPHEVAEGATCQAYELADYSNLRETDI
Procedure, shortened: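 Competition binding on HEK293 membranes with recombinant human α1D receptor, 0.3 nM [3H]-prazosin, 50 mM HEPES/1 mM EDTA pH 7.4, 2 h at room temperature; filtration and scintillation counting. Non-specific binding defined with 10 μM BMY7378. pIC50 from four-parameter logistic fit of specific-binding inhibition.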

[2] = target: T2, recombinant human Dopamine Subtype D2s receptors (Homo sapiens, UniProt P14416); test: Dopamine D2 selectivity assay, [3H]-spiperone binding to membranes; conditions: inhibition of [3H]-spiperone binding, read-out: D2 bind pIC50 (converted)
T2 construct: purchased Perkin Elmer
T2 sequence (P14416 1-414 isoform P14416-2): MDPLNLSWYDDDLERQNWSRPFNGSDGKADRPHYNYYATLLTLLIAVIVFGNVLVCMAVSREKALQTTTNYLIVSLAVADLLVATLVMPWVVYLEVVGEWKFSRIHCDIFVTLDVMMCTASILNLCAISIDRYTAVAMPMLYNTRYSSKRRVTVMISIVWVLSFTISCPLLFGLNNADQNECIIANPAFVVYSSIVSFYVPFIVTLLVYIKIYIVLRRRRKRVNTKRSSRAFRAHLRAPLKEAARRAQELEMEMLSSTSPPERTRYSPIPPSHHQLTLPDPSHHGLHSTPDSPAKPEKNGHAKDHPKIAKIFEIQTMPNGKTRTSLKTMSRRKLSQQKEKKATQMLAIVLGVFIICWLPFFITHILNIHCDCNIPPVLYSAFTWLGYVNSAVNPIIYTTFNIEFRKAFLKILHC
Procedure, shortened: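 Human D2s receptor membranes incubated 2 h at room temperature with 0.16 nM [3H]-spiperone and test compound in HEPES buffer pH 7.4 (120 mM NaCl, 0.1% gelatin). Non-specific binding defined with 10 μM haloperidol; filter-bound radioactivity counted, pIC50 from four-parameter logistic fit.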

`O=C1COc2c(CCNCCN(C(=O)CCNCCc3cccc(Cl)c3)C3CCCCCC3)ccc(O)c2N1` [Example 68, 3-(3-Chlorophenethylamino)-N-cycloheptyl-N-(2-(2-(5-hydroxy-3-oxo-3,4-dihydro-2H-benzo[b][1,4]oxazin-8-yl)ethylamino)ethyl)propanamide bis(trifluoroacetate)] showed an IC50 [1] of 0.158 µM and an IC50 [2] of 0.1 µM.
Work on `O=C1COc2c(CCNCCN(C(=O)CCNCCc3cccc(F)c3)C3CCCCCC3)ccc(O)c2N1` [Example 69, N-Cycloheptyl-3-(3-fluorophenethylamino)-N-(2-(2-(5-hydroxy-3-oxo-3,4-dihydro-2H-benzo[b][1,4]oxazin-8-yl)ethylamino)ethyl)propanamide bis(trifluoroacetate)] yielded an IC50 [1] of 0.2 µM and an IC50 [2] of 0.158 µM.
Compound `O=C1COc2c(CCNCCN(C(=O)CCOCCc3ccccc3)C3CCCCC3)ccc(O)c2N1` [Example 70, N-Cyclohexyl-N-(2-(2-(5-hydroxy-3-oxo-3,4-dihydro-2H-benzo[b][1,4]oxazin-8-yl)ethylamino)ethyl)-3-phenethoxypropanamide trifluoroacetate] has an IC50 [1] of 1.58 µM and an IC50 [2] of 1 µM.
`O=C1COc2c(CCNCCN(C(=O)CCOCCc3cccc(F)c3)C3CCCCC3)ccc(O)c2N1` [Example 74, N-Cyclohexyl-3-(3-fluorophenethoxy)-N-(2-(2-(5-hydroxy-3-oxo-3,4-dihydro-2H-benzo[b][1,4]oxazin-8-yl)ethylamino)ethyl)propanamide trifluoroacetate] gave an IC50 [1] of 0.794 µM and an IC50 [2] of 2 µM.
Work on `O=C1COc2c(CCNCCN(C(=O)CCOCCc3ccc(F)cc3)C3CCCCC3)ccc(O)c2N1` [Example 75, N-Cyclohexyl-3-(4-fluorophenethoxy)-N-(2-(2-(5-hydroxy-3-oxo-3,4-dihydro-2H-benzo[b][1,4]oxazin-8-yl)ethylamino)ethyl)propanamide trifluoroacetate] yielded an IC50 [1] of 0.631 µM and an IC50 [2] of 2 µM.
`O=C1COc2c(CCNCCN(C(=O)CCOCCc3ccccc3F)C3CCCCC3)ccc(O)c2N1` [Example 76, N-Cyclohexyl-3-(2-fluorophenethoxy)-N-(2-(2-(5-hydroxy-3-oxo-3,4-dihydro-2H-benzo[b][1,4]oxazin-8-yl)ethylamino)ethyl)propanamide trifluoroacetate] was tested, and the IC50 [1] was 1 µM and the IC50 [2] was 2.51 µM.
`O=C1COc2c(CCNCCN(C(=O)CCOCCc3cccc(Cl)c3)C3CCCCC3)ccc(O)c2N1` [Example 77, 3-(3-Chlorophenethoxy)-N-cyclohexyl-N-(2-(2-(5-hydroxy-3-oxo-3,4-dihydro-2H-benzo[b][1,4]oxazin-8-yl)ethylamino)ethyl)propanamide trifluoroacetate] was tested, and the IC50 [1] was 0.794 µM and the IC50 [2] was 2 µM.
`CC[C@@H](C)N(CCNCCc1ccc(O)c2[nH]c(=O)ccc12)C(=O)CCOCCc1ccccc1.Cl` [Example 79, (R)—N-sec-Butyl-N-(2-(2-(8-hydroxy-2-oxo-1,2-dihydroquinolin-5-yl)ethylamino)ethyl)-3-phenethoxypropanamide hydrochloride] gave an IC50 [1] of 0.631 µM and an IC50 [2] greater than 10 µM.
Work on `CC(C)[C@@H](C)N(CCNCCc1ccc(O)c2[nH]c(=O)ccc12)C(=O)CCOCCc1ccccc1.Cl` [Example 80, (R)—N-(2-(2-(8-Hydroxy-2-oxo-1,2-dihydroquinolin-5-yl)ethylamino)ethyl)-N-(3-methylbutan-2-yl)-3-phenethoxypropanamide hydrochloride] yielded an IC50 [1] of 0.501 µM and an IC50 [2] of 2.51 µM.

Source: US20100056508A1, “AMINE DERIVATIVES AND THEIR USE IN BETA-2-ADRENORECEPTOR MEDIATED DISEASES” (ASTRAZENECA AB, priority 2006, published 2010)
